According to US11247976B2, “Synthetic ligands that modulate the activity of the RhlR quorum sensing receptor” (Wisconsin Alumni Research Foundation, priority 2016, dated 2022):
pEC50: −log10 of the molar value. Entries after “also recorded” stand apart in the source; their conditions may differ.

Experiments:
RhlR [1] = target: T1, RhlR (Pseudomonas aeruginosa, UniProt P54292); assay: E. coli RhlR reporter antagonism assay vs 10 μM BHL (JLD271/pJN105R2/pSC11-rhlI*); format: cell-based, P. aeruginosa; conditions: for inhibition at 10 µM: read-out: % inhibition (10 μM), compound at 10 μM in the presence of 10 μM BHL; for inhibition at 10 µM / inhibition at 1000 µM: negative = agonism stronger than 10 μM BHL alone; for inhibition at 1000 µM: read-out: % inhibition (1 mM), compound at 1 mM in the presence of 10 μM BHL
T1 construct: expressed in transfected cells; host or cells: E. coli JLD271 (ΔsdiA) with pJN105R2 (arabinose-induced) and pSC11-rhlI*

RhlR [2] = target: T1, RhlR; assay: E. coli RhlR reporter agonism assay (JLD271/pJN105R2/pSC11-rhlI*); format: cell-based, P. aeruginosa; conditions: for activation at 10 µM: compound at 10 μM, RhlR activity relative to 1 mM BHL; for Emax: read-out: Maximum Activation (%)

T1 sequence (P54292 whole entry): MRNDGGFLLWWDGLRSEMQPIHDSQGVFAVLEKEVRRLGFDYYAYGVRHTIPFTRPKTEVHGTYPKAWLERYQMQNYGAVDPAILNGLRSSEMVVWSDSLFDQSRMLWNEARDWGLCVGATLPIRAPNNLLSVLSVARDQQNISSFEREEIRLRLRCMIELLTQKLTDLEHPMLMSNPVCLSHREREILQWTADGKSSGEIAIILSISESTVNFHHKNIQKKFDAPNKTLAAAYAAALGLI

Row | SMILES | RhlR antagonist activity in words (RhlR [1]; E. coli reporter vs 10 μM BHL) | Maximum Inhibition (%) (RhlR [1]; E. coli reporter, relative to activation of 10 μM BHL alone) | inhibition at 10 µM (RhlR [1]) | activation at 10 µM (RhlR [2]; E. coli reporter) | inhibition at 1000 µM (RhlR [1]) | pEC50 (RhlR [2]) | Emax (RhlR [2]) | RhlR agonist potency in words (RhlR [2]; dose-response, E. coli reporter)
1 | O=C(COc1ccc(I)cc1)N[C@H]1CCSC1=O [RN22] | potent antagonist activity; also recorded: activity comparable to previously identified compound E22 | 81% | 28% | 1% | – | – | – | –
2 | CC(C)CC(=O)N[C@H]1CCCC1=O [RN36] | – | – | -35% | > 50% | -122% | 5.12 | 101% | –
3 | O=C(N[C@H]1CCCC1=O)C1CCC1 [RN12] | – | – | -39% | > 50% | -98% | 5.23 | 93% | –
4 | CC(C)CC(=O)N[C@H]1CCSC1=O [RN37] | – | – | -59% | – | -81% | 6.33 | 93% | improves potency two-fold over the homoserine lactone variant; also recorded: most potent RhlR agonist found in the E. coli reporter
